Measured values as given in patent US20250388582A1, “NOVEL BICYCLIC HETEROARYL COMPOUND AND USE THEREOF” (ILDONG PHARMACEUTICAL CO., LTD., priority 2022, published 2025).

Legend:
PIKFYVE = biological target: T1, PIKFYVE (Homo sapiens, UniProt Q9Y2I7); assay: NanoBRET TE Intracellular Kinase Assay, interaction of PIKFYVE and compounds in HEK293 cells; assay type: cell-based; conditions: IC50 class from BRET; HEK293 cells expressing PIKFYVE-NanoLuc; 2 hours incubation
T1 construct: host or cells: HEK293 (ATCC, CRL-1573)
Procedure: To predict the efficacy of the compounds according to Example on PIKFYVE in humans, the interaction between PIKFYVE and the compounds was tested using the HEK293 cell line derived from human embryonic kidney (ATCC, CRL-1573) via NanoBRETT TE Intracellular Kinase Assay Service of Carna biosciences Inc., (Japan). The evaluation method provided by Carna biosciences Inc., was shown below and the NanoBRET™ TE Intracellular Kinase Assay, K-8 Kit (Promega, CS1810C88) was used.
The HEK-293 cells cultured in Opti-MEM™ I Reduced Serum Medium (Thermo Fisher, 11058-021) were transfected with Transfection Carrier DNA (Promega, E4881), PIKFYVE-NanoLuc Fusion Vector (Promega, CS1810C225), and FuGENE HD Transfection Reagent (Promega, E2311) to produce cells expressing genes combining PIKFYVE and NanoLuc, followed by culturing 100 μl (2×10^5 cells/ml) each in 96-well plates (Corning, 3917).
10× compounds according to Examples or Comparative Examples prepared by concentration in 1× NanoBRET™ tracer reagent and DMSO were reacted in 96-well plates and incubated for 2 hours in a 37° C., 5% CO2 incubator.
After the reaction was completed, 3× Complete NanoBRET™ Nano-Glo Substrate solution was added to each well, and the reaction was allowed to run for 2-3 minutes at room temperature before BRET was measured using a GloMax Discover Multimode Microplate Reader (Promega).

human GST-PIKFYVE = biological target: T2, human GST-PIKFYVE (Homo sapiens, UniProt Q9Y2I7); assay: ADP-Glo kinase assay, enzyme inhibition activity against human PIKFYVE (Carna biosciences); assay type: biochemical; conditions: inhibitory activity at final compound concentration 10 nM; 1 hour at room temperature
T2 construct: GST; purchased Carna biosciences 11-118
Procedure: The enzyme inhibition activity values for the compounds according to Examples against human PIKFYVE were calculated using the ADP-Glo™ kinase assay service of Carna biosciences, Inc. The enzyme activity evaluation method provided by Carna biosciences Inc., is shown below.
Enzyme inhibition activity was evaluated by reacting the compounds according to Examples with human GST-PIKFYVE (11-118, Carna biosciences), which was purified using glutathione Sepharose chromatography. The reaction buffer used was composed of 50 mmol/L MOPS, 1 mmol/L DTT, and pH 7.2, and all reactions of the test distilled water were performed in the buffer.
Compounds were prepared as solutions in 100% DMSO as 100× stocks and adjusted to have a final sample concentration of 10 nM.
The substrate-enzyme reaction for PIKFYVE was performed by mixing 5 μL human GST-PIKFYVE, 5 μL compounds according to Examples, 5 μL enzyme substrate, and 5 μL purified ATP and reacting for 1 hour at room temperature. After the substrate-enzyme reaction, 20 μL ADP-Glo™ Reagent was added and reacted at room temperature for 40 minutes, then 40 μL Kinase Detection Reagent was added and reacted at room temperature for 40 minutes.
After completion of the reaction, the degree of enzyme activity inhibition was measured by luminescence. The fluorescence of the enzyme activity in the solvent control group […] was set to 100%, and the fluorescence of the enzyme activity in the solvent control group without compound treatment was set to 0%. The inhibitory activity of each compound according to Examples was calculated based on these values.

T2 sequence (Q9Y2I7 whole entry): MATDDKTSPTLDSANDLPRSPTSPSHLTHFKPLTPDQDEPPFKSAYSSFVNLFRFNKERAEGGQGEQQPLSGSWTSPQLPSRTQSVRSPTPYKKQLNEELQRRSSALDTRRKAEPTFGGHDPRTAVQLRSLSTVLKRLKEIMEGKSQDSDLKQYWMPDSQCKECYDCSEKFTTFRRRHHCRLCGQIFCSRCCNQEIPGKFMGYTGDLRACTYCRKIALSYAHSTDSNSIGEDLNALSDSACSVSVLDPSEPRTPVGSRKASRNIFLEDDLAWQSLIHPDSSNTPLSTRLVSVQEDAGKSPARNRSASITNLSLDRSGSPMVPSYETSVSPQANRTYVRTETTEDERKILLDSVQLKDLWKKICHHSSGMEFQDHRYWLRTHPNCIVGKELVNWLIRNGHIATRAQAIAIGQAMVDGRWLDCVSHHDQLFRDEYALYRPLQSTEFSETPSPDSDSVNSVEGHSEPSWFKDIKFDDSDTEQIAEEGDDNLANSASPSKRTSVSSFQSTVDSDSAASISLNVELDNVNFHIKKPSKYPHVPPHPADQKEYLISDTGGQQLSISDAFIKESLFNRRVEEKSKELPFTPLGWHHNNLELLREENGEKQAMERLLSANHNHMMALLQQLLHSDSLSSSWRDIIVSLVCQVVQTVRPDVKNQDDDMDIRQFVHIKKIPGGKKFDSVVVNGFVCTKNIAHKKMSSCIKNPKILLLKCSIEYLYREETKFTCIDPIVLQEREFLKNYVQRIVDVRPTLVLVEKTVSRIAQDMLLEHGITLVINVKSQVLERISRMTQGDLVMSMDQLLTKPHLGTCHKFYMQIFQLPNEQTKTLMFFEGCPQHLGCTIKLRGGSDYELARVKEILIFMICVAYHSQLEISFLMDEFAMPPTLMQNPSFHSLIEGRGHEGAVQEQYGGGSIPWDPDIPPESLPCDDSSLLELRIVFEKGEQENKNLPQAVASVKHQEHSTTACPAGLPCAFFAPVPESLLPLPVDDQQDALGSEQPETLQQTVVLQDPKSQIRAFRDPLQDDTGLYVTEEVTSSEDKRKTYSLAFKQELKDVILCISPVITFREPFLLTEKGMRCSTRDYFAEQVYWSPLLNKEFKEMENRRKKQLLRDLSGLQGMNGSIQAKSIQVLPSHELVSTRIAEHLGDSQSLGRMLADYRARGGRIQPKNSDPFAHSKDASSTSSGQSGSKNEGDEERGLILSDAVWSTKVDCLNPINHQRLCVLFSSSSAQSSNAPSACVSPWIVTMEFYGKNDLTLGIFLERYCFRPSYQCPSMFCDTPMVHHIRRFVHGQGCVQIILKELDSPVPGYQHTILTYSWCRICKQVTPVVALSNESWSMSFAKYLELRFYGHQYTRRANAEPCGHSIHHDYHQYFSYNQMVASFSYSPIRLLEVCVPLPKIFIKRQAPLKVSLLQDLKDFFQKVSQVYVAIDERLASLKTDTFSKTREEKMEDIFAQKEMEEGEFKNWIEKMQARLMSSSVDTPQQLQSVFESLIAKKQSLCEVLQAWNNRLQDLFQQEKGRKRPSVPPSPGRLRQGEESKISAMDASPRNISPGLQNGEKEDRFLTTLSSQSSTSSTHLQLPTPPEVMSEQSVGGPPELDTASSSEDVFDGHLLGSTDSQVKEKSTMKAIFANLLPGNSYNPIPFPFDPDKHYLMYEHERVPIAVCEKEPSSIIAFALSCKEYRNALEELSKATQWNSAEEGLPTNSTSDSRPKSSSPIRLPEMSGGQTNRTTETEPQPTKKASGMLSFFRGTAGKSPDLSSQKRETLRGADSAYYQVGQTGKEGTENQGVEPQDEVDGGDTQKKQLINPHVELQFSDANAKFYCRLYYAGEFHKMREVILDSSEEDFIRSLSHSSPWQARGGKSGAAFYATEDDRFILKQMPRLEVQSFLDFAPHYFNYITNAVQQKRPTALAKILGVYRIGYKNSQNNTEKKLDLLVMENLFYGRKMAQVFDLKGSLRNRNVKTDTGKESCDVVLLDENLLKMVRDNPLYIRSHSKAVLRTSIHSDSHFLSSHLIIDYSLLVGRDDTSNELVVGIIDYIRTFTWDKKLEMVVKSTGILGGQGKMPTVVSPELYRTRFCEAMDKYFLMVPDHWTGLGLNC
T1 sequence (Q9Y2I7 whole entry): as above

IC50 (PIKFYVE) [nM]	ADP-Glo kinase assay (%, 10 nM) (human GST-PIKFYVE) [%]	SMILES
10 to 20	69.26	Cc1cccc(/C=N/Nc2nc(N3CCOCC3)nc3c2ncn3CC(C)C)c1 [Example 17, (E)-4-(9-isobutyl-6-(2-(3-methylbenzylidene)hydrazinyl)-9H-purin-2-yl)morpholine]
≤ 10	89.87	Cc1cccc(/C=N/Nc2nc(N3CCOCC3)nc3c2ncn3CCc2ccccc2)c1 [Example 18, (E)-4-(6-(2-(3-methylbenzylidene)hydrazinyl)-9-phenethyl-9H-purin-2-yl)morpholine]
	63.89	Cc1cccc(/C=N/Nc2nc(N3CCOCC3)nc3c2nc(C)n3-c2ccccn2)c1 [Example 164, (E)-4-(8-methyl-6-(2-(3-methylbenzylidene)hydrazinyl)-9-(pyridin-2-yl)-9H-purin-2-yl)morpholine]
	68.47	Cc1ccccc1/C=N/n1cnc2c(Nc3ccncc3)nc(N3CCOCC3)nc21 [Example 167, (E)-9-((2-methylbenzylidene)amino)-2-morpholino-N-(pyridin-4-yl)-9H-purin-6-amine]
	87.26	Cc1ccc(/C=N/n2cnc3c(Nc4ccncc4)nc(N4CCOCC4)nc32)cc1 [Example 168, (E)-9-((4-methylbenzylidene)amino)-2-morpholino-N-(pyridin-4-yl)-9H-purin-6-amine]
	89.56	C(=N\n1cnc2c(Nc3ccncc3)nc(N3CCOCC3)nc21)/c1ccccc1 [Example 169, (E)-9-(benzylideneamino)-2-morpholino-N-(pyridin-4-yl)-9H-purin-6-amine]
	79.60	FC(F)(F)c1cccc(/C=N/n2cnc3c(Nc4ccncc4)nc(N4CCOCC4)nc32)c1 [Example 170, (E)-2-morpholino-N-(pyridin-4-yl)-9-((3-(trifluoromethyl)benzylidene)amino)-9H-purin-6-amine]
	86.73	Clc1cccc(/C=N/n2cnc3c(Nc4ccncc4)nc(N4CCOCC4)nc32)c1 [Example 171, (E)-9-((3-chlorobenzylidene)amino)-2-morpholino-N-(pyridin-4-yl)-9H-purin-6-amine]
	90.96	COc1cccc(/C=N/n2cnc3c(Nc4ccncc4)nc(N4CCOCC4)nc32)c1 [Example 172, (E)-9-((3-methoxybenzylidene)amino)-2-morpholino-N-(pyridin-4-yl)-9H-purin-6-amine]
	73.94	COc1ccc(/C=N/n2cnc3c(Nc4ccncc4)nc(N4CCOCC4)nc32)cc1 [Example 173, (E)-9-((4-methoxybenzylidene)amino)-2-morpholino-N-(pyridin-4-yl)-9H-purin-6-amine]
	55.44	COc1ccc(Nc2nc(N3CCOCC3)nc3c2ncn3/N=C/c2cccc(C)c2)cc1 [Example 178, (E)-N-(4-methoxyphenyl)-9-((3-methylbenzylidene)amino)-2-morpholino-9H-purin-6-amine]
	63.03	Cc1cccc(/C=N/n2cnc3c(Nc4ccccc4)nc(N4CCOCC4)nc32)c1 [Example 180, (E)-9-((3-methylbenzylidene)amino)-2-morpholino-N-phenyl-9H-purin-6-amine]
	53.92	Cc1ccc(Nc2nc(N3CCOCC3)nc3c2ncn3/N=C/c2cccc(C)c2)cc1 [Example 181, (E)-9-((3-methylbenzylidene)amino)-2-morpholino-N-(p-tolyl)-9H-purin-6-amine]
	55.65	COc1cccc(Nc2nc(N3CCOCC3)nc3c2ncn3/N=C/c2cccc(C)c2)c1 [Example 184, (E)-N-(3-methoxyphenyl)-9-((3-methylbenzylidene)amino)-2-morpholino-9H-purin-6-amine]
	52.43	Cc1cccc(/C=N/n2cnc3c(Nc4ccc(Cl)cc4)nc(N4CCOCC4)nc32)c1 [Example 186, (E)-N-(4-chlorophenyl)-9-((3-methylbenzylidene)amino)-2-morpholino-9H-purin-6-amine]
	52.07	COc1ccccc1Nc1nc(N2CCOCC2)nc2c1ncn2/N=C/c1cccc(C)c1 [Example 187, (E)-N-(2-methoxyphenyl)-9-((3-methylbenzylidene)amino)-2-morpholino-9H-purin-6-amine]
	65.93	Cc1cccc(/C=N/n2cnc3c(Nc4cc(C)n(C)n4)nc(N4CCOCC4)nc32)c1 [Example 188, (E)-N-(1,5-dimethyl-1H-pyrazol-3-yl)-9-((3-methylbenzylidene)amino)-2-morpholino-9H-purin-6-amine]
	78.59	Cc1cccc(Nc2nc(N3CCOCC3)nc3c2ncn3/N=C/c2cccnc2)c1 [Example 190, (E)-2-morpholino-9-((pyridin-3-ylmethylene)amino)-N-(m-tolyl)-9H-purin-6-amine]
	61.25	Cc1cccc(/C=N/n2cnc3c(Nc4cncc(C)c4)nc(N4CCOCC4)nc32)c1 [Example 192, (E)-9-((3-methylbenzylidene)amino)-N-(5-methylpyridin-3-yl)-2-morpholino-9H-purin-6-amine]
	64.35	Cc1cccc(/C=N/n2cnc3c(Nc4ccnc(Cl)c4)nc(N4CCOCC4)nc32)c1 [Example 193, (E)-N-(2-chloropyridin-4-yl)-9-((3-methylbenzylidene)amino)-2-morpholino-9H-purin-6-amine]
	61.38	Cc1cccc(/C=N/n2cnc3c(Nc4cccnc4C)nc(N4CCOCC4)nc32)c1 [Example 194, (E)-9-((3-methylbenzylidene)amino)-N-(2-methylpyridin-3-yl)-2-morpholino-9H-purin-6-amine]
	75.59	Cc1cccc(/C=N/n2cnc3c(Nc4cc(C)no4)nc(N4CCOCC4)nc32)c1 [Example 198, (E)-3-methyl-N-(9-((3-methylbenzylidene)amino)-2-morpholino-9H-purin-6-yl)isoxazol-5-amine]
	53.14	Cc1cccc(CNn2cnc3c(Nc4ccncc4)nc(N4CCOCC4)nc32)c1 [Example 203, N^9-(3-methylbenzyl)-2-morpholino-N^6-(pyridin-4-yl)-9H-purin-6,9-diamine]
	53.74	COc1ccc(Nc2nc(N3CCOCC3)nc3c2nc(C)n3/N=C/c2cccc(C)c2)cc1 [Example 205, (E)-N-(4-methoxyphenyl)-8-methyl-9-((3-methylbenzylidene)amino)-2-morpholino-9H-purin-6-amine]
	53.87	Cc1cccc(/C=N/n2c(C)nc3c(Nc4ccccc4)nc(N4CCOCC4)nc32)c1 [Example 206, (E)-8-methyl-9-((3-methylbenzylidene)amino)-2-morpholino-N-phenyl-9H-purin-6-amine]
	75.57	Cc1cccc(/C=N/n2c(C)nc3c(Nc4ccncc4)nc(N4CCOCC4)nc32)c1 [Example 207, (E)-8-methyl-9-((3-methylbenzylidene)amino)-2-morpholino-N-(pyridin-4-yl)-9H-purin-6-amine]
	71.38	Cc1cccc(/C=N/n2c(C)nc3c(OCCc4ccccn4)nc(N4CCOCC4)nc32)c1 [Example 208, (E)-N-8-methyl-2-morpholino-(6-(2-pyridin-2-yl)ethoxy)-9H-purin-9-yl-1-(m-tolyl)methanimine]
	63.00	Cc1cccc(/C=N/Nc2nc(N3CCOCC3)nc3nc(-c4cccnc4)ccc23)c1 [Example 216, (E)-4-(4-(2-(3-methylbenzylidene)hydrazinyl)-7-(pyridin-3-yl)pyrido[2,3-d]pyrimidin-2-yl)morpholine]

SMILES	IC50 (PIKFYVE) [nM]	ADP-Glo kinase assay (%, 10 nM) (human GST-PIKFYVE) [%]
Cc1cccc(/C=N/n2cnc3c(-n4ccnc4)nc(N4CCOCC4)nc32)c1 [Example 176, (E)-N-(6-(1H-imidazol-1-yl)-2-morpholino-9H-purin-9-yl)-1-(m-tolyl)methanimine]		56.91
